Measurements from patent US20230233592A1, “PHARMACEUTICAL COMPOSITION FOR THE CHEMICAL INHIBITION OF TGS1 IN THE THERAPEUTIC TREATMENT OF TELOMEROPATHIES” (priority 2020, published 2023).
Entries after “also recorded” stand apart in the source; their conditions may differ. Like-named read-outs stand apart in the source and are kept apart here.

Experiments:
Toxoplasma gondii = details: mice infected with Toxoplasma gondii; cited from earlier work
[1] = tested on: fungal cap methyltransferase enzyme; details: Chrebet et al. 2005; cited from earlier work
Leishmania = details: cited from earlier work
[2] = high doses, goats; cited from earlier work
UMUC3 cells [3] = experiment: Telomere Restriction Fragment (TRF) analysis in TGS1-proficient UMUC3 cells; assay type: cell-based, human; details: TGS1-proficient UMUC3 cells cultivated with Sinefungin, over 15 population doublings / 46 days
Procedure: (B,D,F) Determination of the telomeric length by means of Telomere Restriction Fragment analysis (TRF, performed according to the methods described in Roake, C. M. et al. Mol Cell 74, 2019) in two cell types characterized by short telomeres: the UMUC3 tumour cell line and the HeLa cells lacking in TGS1 or deadenylase PARN. […] No lengthening of telomeres in the not-treated parental cells is observed (lanes 9-10). The effects of Sinefungin were tested on the tumour cell line of UMUC3 bladder, characterized by limiting levels of hTR for the activity telomerase and by short telomeres (Xu L. & Blackburn E. H. Mol Cell 28, 2007). The UMUC3 cells were treated with Sinefungin 100 μM for 10 days, and then the levels of RNA hTR were determined. […] In order to confirm that Sinefungin is capable of striking specifically the TGS1 enzyme, a treatment with Sinefungin was tested on clones of UMUC3 cells, characterized by CRISPR-induced mutations in TGS1 (Chen et al.) (FIG. 3C), inside thereof there is a lengthening of the telomeres over time due to a deficiency of TGS1 (FIG. 3D). Control cells and mutant cells were cultivated for 46 days in presence or absence of Sinefungin.

HeLa PARN KO cells [4] = experiment: qRT-PCR analysis of hTR levels in HeLa PARN KO cells; assay type: cell-based, human; details: 50 μM Sinefungin, 10 days
Procedure: (A, E) qRT-PCR analysis of levels of hTR on RNA of UMUC3 cells (A) or of the cell line HeLa PARN KO (E), treated or not with 50 μM Sinefungin for 10 days. The bars represent the variation in the levels of hTR in the treated cells and in the not treated cells, obtained by three replicates. The effects of Sinefungin were tested on mutant HeLa cells for PARN deadenylase (PARN KO) enzyme, one of the causative factors of congenital dyskeratosis (Tummala et al., 2015) (Roake C. M. et al. Mol cell 74, 2019). PARN KO cells, obtained in the laboratory of […] (Stanford University), are characterized by short telomeres, due to the reduced levels of RNA component of telomerase.

RNA hypermethylase TGS1 = RNA hypermethylase TGS1 (Homo sapiens, UniProt Q96RS0); details: Yedavalli & Jeang 2010; cited from earlier work
[5] = target: T1, SET7/9 lysine methyltransferase (Mus musculus, UniProt Q8VHL1); details: murine model for renal fibrosis; cited from earlier work
T1 construct: host or cells: murine model of renal fibrosis
T1 sequence (Q8VHL1 1-366): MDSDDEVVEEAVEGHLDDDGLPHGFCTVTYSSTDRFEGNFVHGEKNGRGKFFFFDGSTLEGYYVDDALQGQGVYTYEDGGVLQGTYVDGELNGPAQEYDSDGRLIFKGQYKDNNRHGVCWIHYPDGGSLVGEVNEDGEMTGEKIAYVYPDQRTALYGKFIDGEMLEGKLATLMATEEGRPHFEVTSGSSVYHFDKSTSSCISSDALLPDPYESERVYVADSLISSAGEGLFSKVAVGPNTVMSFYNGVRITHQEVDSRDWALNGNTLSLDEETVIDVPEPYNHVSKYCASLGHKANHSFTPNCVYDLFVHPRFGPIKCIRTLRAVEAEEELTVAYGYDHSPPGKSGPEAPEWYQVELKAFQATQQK

[6] = target: T2, recombinant TGS1 enzyme fused to protein GST (Homo sapiens, UniProt Q96RS0); experiment: In vitro hypermethylation assay with recombinant GST-TGS1 enzyme; assay type: biochemical; details: Sinefungin 100 μM; 50 μM [3H-CH3]AdoMet; 5 mM m7GTP
T2 construct: made in house; host or cells: bacterial cells
Procedure: Sinefungin, analogous of S-adenosyl-methionine, inhibits the reaction of hypermethylation catalyzed by TGS1. (A) In vitro assay of hypermethylation performed by incubating 1 μg of recombinant GST-TGS1 or GST with 50 μM [^3H—CH3]AdoMet (SAM) and with 5 mM m^7GTP (MMG), in presence or not of 100 μM Sinefungin. Aliquots of the reaction mixture are placed on cellulose-polyethyleneimine and the reaction products are resolved by means of TLC. The incorporation of ^3H—CHs in the methylated derivatives of MMg (DMG or TMG) is quantified by means of liquid scintillation counting. (B) Control reactions performed without protein or GST. (C) The entity of transfer of ^3H-methyl to the dinucleotide cap is shown. The Sinefungin capability of inhibiting the methyl-transferase activity of TGS1 enzyme was evaluated by means of recombinant in vitro hypermethylation assay by using recombinant TGS1 enzyme fused to protein GST. After having purified TGS1-GST from bacterial cells, still immobilized on glutathione beads, or GST alone, the assay was performed in presence or absence of Sinefungin, by using [^3H—CH3]AdoMet as methyl donor and m^7GTP (MMG) as substrate.

HeLa PARN KO cells [7] = experiment: Telomere Restriction Fragment (TRF) analysis in HeLa PARN KO cells; assay type: cell-based, human; details: 50 μM Sinefungin, 46 days
Procedure: (B,D,F) Determination of the telomeric length by means of Telomere Restriction Fragment analysis (TRF, performed according to the methods described in Roake, C. M. et al. Mol Cell 74, 2019) in two cell types characterized by short telomeres: the UMUC3 tumour cell line and the HeLa cells lacking in TGS1 or deadenylase PARN. (F) HeLa PARN KO cells were treated or not with 50 μM of Sinefungin for the period of time indicated in culture. Due to the reduced levels of RNA component of telomerase, the average telomeric length is shorter in the PARN KO cells (lane 13) rather than in the parental HeLa cell line. (4.5 kb vs 7.5 kb). […] The effects of Sinefungin were tested on mutant HeLa cells for PARN deadenylase (PARN KO) enzyme, one of the causative factors of congenital dyskeratosis (Tummala et al., 2015) (Roake C. M. et al. Mol cell 74, 2019). PARN KO cells, obtained in the laboratory of […] (Stanford University), are characterized by short telomeres, due to the reduced levels of RNA component of telomerase.

[8] = high doses, dogs; cited from earlier work
UMUC3 cells [9] = experiment: qRT-PCR analysis of hTR levels in UMUC3 cells; assay type: cell-based, human; details: Sinefungin 100 μM for 10 days
Procedure: (A, E) qRT-PCR analysis of levels of hTR on RNA of UMUC3 cells (A) or of the cell line HeLa PARN KO (E), treated or not with 50 μM Sinefungin for 10 days. The bars represent the variation in the levels of hTR in the treated cells and in the not treated cells, obtained by three replicates. The effects of Sinefungin were tested on the tumour cell line of UMUC3 bladder, characterized by limiting levels of hTR for the activity telomerase and by short telomeres (Xu L. & Blackburn E. H. Mol Cell 28, 2007). The UMUC3 cells were treated with Sinefungin 100 μM for 10 days, and then the levels of RNA hTR were determined. […] In order to confirm that Sinefungin is capable of striking specifically the TGS1 enzyme, a treatment with Sinefungin was tested on clones of UMUC3 cells, characterized by CRISPR-induced mutations in TGS1 (Chen et al.) (FIG. 3C), inside thereof there is a lengthening of the telomeres over time due to a deficiency of TGS1 (FIG. 3D). Control cells and mutant cells were cultivated for 46 days in presence or absence of Sinefungin.

RNA hypermethylase TGS1, sequence (Q96RS0 whole entry): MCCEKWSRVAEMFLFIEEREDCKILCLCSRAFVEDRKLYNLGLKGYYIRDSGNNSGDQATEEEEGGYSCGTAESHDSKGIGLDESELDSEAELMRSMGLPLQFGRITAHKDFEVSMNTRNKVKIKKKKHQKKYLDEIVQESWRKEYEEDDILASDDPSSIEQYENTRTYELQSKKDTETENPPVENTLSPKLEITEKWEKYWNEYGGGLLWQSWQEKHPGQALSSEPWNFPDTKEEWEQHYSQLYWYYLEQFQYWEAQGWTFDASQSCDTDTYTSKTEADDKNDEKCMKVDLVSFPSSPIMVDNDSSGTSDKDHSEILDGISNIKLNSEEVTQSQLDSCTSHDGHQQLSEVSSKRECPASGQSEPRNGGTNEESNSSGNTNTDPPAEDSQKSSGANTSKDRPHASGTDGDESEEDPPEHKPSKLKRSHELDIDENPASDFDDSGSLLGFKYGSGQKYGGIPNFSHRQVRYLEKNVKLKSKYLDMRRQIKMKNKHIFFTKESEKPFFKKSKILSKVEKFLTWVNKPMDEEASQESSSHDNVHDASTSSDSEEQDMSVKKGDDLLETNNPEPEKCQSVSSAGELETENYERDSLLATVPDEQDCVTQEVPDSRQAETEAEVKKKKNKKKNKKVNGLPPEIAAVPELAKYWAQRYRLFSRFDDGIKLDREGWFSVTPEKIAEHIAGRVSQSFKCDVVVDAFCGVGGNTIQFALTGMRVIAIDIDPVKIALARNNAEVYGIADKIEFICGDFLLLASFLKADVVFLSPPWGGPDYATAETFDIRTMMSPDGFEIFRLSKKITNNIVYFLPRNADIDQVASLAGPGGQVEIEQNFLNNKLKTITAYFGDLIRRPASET
T2 sequence (Q96RS0 whole entry, the tested form may be a part): as the sequence (Q96RS0 whole entry) above

Sinefungin
survival of infected mice (Toxoplasma gondii): increased the survival of mice
inhibition of fungal cap methyltransferase with respect to the human ortholog [1]: ten times more effectively
survival of infected mice (Leishmania; mice infected with various isolates of Leishmania): increased the survival of mice
toxic effects in infected mice (Leishmania; mouse, in vivo): without showing clinically detectable toxic effects
nephrotoxicity [2]: nephrotoxic effects were detected
telomere length (TRF) (UMUC3 cells [3]): A lengthening of telomeres takes place in the treated control cells; also recorded: a lengthening of the telomeres was observed
levels of hTR (HeLa PARN KO cells [4]): a significative increase in the levels of hTR
inhibition of TGS1 in human cells (RNA hypermethylase TGS1): inhibits RNA hypermethylase TGS1
renal fibrosis pathology [5]: an improvement in the pathology
methyl-transferase activity of TGS1 (3H-methyl transfer to m7GTP, TLC / liquid scintillation) [6]: inhibit the methyl-transferase activity of TGS1
telomere length (TRF) (HeLa PARN KO cells [7]): a lengthening of telomeres; also recorded: a substantial increase in the telomere length
nephrotoxicity [8]: nephrotoxic effects were detected
increase in the levels of hTR (UMUC3 cells [9]): 1.5 times
